# According to paper PMC9228468, “Relevance of Therapeutic Drug Monitoring of Tyrosine Kinase Inhibitors in Routine Clinical Practice: A Pilot Study” (Pharmaceutics, 2022):
# Tests used:
# [1] = cited from earlier work
# [2] = Therapeutic drug monitoring: plasma levels by HPLC-UV, dose-normalized plasma concentrations; type: in vivo, human
# Description: (§1) Monitoring was carried out in all cases after at least fifteen days from the start of treatment, when the plasma levels of the drug were considered at steady state. Blood samples were extracted just before ingestion of the tablet/s and at different times after ingestion. The drug was administered in the fasted state and patients were told they could eat food after the second blood sample was drawn. Sampling times, which are defined for each drug in Table 1, were selected based on the optimal sampling theory and pharmacokinetic models previously published in the scientific literature. […] The total blood volume extracted was between 4 and 5 mL for each sample. All samples were centrifuged after extraction at 3500 r.p.m. for 10 min at room temperature and the plasma obtained was frozen at −80 °C until bioanalysis.
# Bioanalysis was carried out using high-performance liquid chromatography (HPLC) coupled with ultraviolet (UV) detection.
# As the stationary phase, an Ultrabase® C18 chromatographic column, 4.6 mm in diameter by 150 mm in length, made of stainless steel and filled with a C18 reversed-phase siliceous substrate with a particle size of 5 µm, was used. A mixture of 40% of 0.02 M ammonium acetate, pH = 7, and 60% acetonitrile: methanol at a ratio of 70:30 (v/v) was used as the mobile phase. The linearity of the technique included a concentration range of 0.05–7.5 µg/mL. The limit of quantification was 0.5 µg/mL. Solid–liquid extraction was used and the analysis time was 9 min.
# The stationary phase used was an Ultrabase® C18 chromatographic column, 4.6 mm in diameter by 150 mm in length, made of stainless steel and filled with a C18 reversed-phase siliceous substrate with a particle size of 5 µm. The mobile phase used was a 40% mixture of 0.02 M ammonium acetate, pH = 7, and 60% acetonitrile: methanol at a ratio of 70:30 (v/v). The linearity of the technique included a concentration range of 0.05–5 µg/mL. The limit of quantification was 0.5 µg/mL. Solid–liquid extraction was used and the analysis time was 10 min.
# (§2) The stationary phase used was a Kromasil® C18 chromatographic column, 4.6 mm in diameter by 150 mm in length, made of stainless steel and filled with a C18 reversed-phase siliceous substrate with a particle size of 5 µm. The mobile phase used was a mixture of acetonitrile and 0.02 M ammonium acetate, pH = 3.5, at a ratio of 53:47 (v/v). The linearity of the technique included a concentration range of 0.02–10 µg/mL. The limit of quantification was 0.2 µg/mL. Liquid–liquid extraction was used and the analysis time was 12 min [51].
# as §2, with “0.1–20” for “0.02–10”, “0.1” for “0.2”, “[52].” for “[51].”
# The program was compiled with the DIGITAL Visual Fortran version 6.6C program. The graphics were made with the S-Plus 6.1 Professional Edition program for Windows (Insightful, Seattle, WA, USA). A one-compartment pharmacokinetic model with first-order absorption and elimination kinetics was selected to describe erlotinib plasma concentrations, as performed previously by other authors. The fixed-effect parameters estimated by the model were V (volume of distribution, L), CL (plasma clearance, L/h) and Ka (absorption constant). The model included plasma ALT concentration and age as covariates in CL, and weight in V.
# The model was parameterized in terms of D1 (zero-order absorption duration), V and CL, and included the plasma concentration of α 1-acid glycoprotein as a covariate in CL. […]
# [3] = cited from earlier work; remark: listed apart in the source
# [4] = Incidence of toxicity (CTCAE grades), first vs last monitored cycle; type: in vivo, human; conditions: for Patients with toxicity: at start of treatment; for Toxicity: RI G1: renal insufficiency grade 1 (IR G1 for sorafenib); for Toxicity: RI G2: renal insufficiency grade 2
# Description: (§3) Patients’ medical records were reviewed with the aim of studying all possible factors related to the patient and the medication that may influence the evolution of the plasma concentrations of TKIs. Sociodemographic and anthropometric, pharmacological treatment, clinical, toxicity and therapeutic drug monitoring data were collected. Treatment response was determined according to the […]. Adverse events were recorded by grade according to the Common Terminology Criteria for Adverse Events version 3.0 (CTCAE v 3.0).
# To compare the variation in categorical variables (rash, diarrhea, fatigue, abdominal pain, hypertension, and mucositis) between the first and the last monitored cycle, the non-parametric chi-square test was performed.
# [5] = Survival analysis (Kaplan-Meier, PFS and OS); type: in vivo, human; conditions: real-world cancer patients with TDM
# Description: as §3
# To assess the relationship between treatments protocols and disease progression or mortality, a Kaplan–Meier survival curve was plotted.
# [6] = Groups of patients according to exposure and toxicity; type: in vivo, human; conditions: for % patients, Group 1 / % patients, Group 3: Drug concentrations above target level: No; for % patients, Group 1 / % patients, Group 2: Toxicities: No; for % patients, Group 3 / % patients, Group 4: Toxicities: Yes; for % patients, Group 2 / % patients, Group 4: Drug concentrations above target level: Yes
# [7] = TDM-guided dose adjustment recommendations per monitored cycle; type: in vivo, human; conditions: for monitored cycles with recommendation to decrease the dose: concentrations above therapeutic range; for monitored cycles with recommendation to increase the prescribed dose: concentrations below target therapeutic range; for monitored cycles with recommendation to maintain the current dose: concentrations within therapeutic range; for monitored cycles with recommendation to suspend/suppress the drug: in vivo
# Description: Patients included in this study received drugs at doses previously established by their doctors, according to data sheet indications and clinical judgment. In all cases, drug dose was prescribed before the patient enrolled onto this study and was not affected by this study prior to enrollment.
# as §1
# [8] = last monitored cycle, after TDM and dose adjustments
# [9] = phase II study of 57 NSCLC patients
# [10] = last monitored cycle, after TDM and dose adjustment
Compound,mean interpatient variability in dose-normalized plasma concentrations (CV) ([2]; first monitored cycle),"mean interpatient variability in dose-normalized plasma concentrations (CV) [2, 8]",Patients with toxicity [4],Toxicity: Anemia G1 ([4]; in vivo),Toxicity: Anemia G2 ([4]; in vivo),Toxicity: Diarrhea G2 ([4]; in vivo),Toxicity: Mucositis G3 ([4]; in vivo),Toxicity: Skin rash G1 ([4]; in vivo),Toxicity: Skin rash G3 ([4]; in vivo),"analytical parameters related to toxicity and defined toxicities, first vs last monitored cycle ([4]; in vivo)",patients who developed toxicity at the start of treatment ([4]; in vivo),Toxicity: RI G1 [4],"Overall Survival, Median [5]","Progression-Free Survival, Median [5]","% patients, Group 3 [6]","% patients, Group 2 [6]","% patients, Group 4 [6]",monitored cycles with recommendation to decrease the dose [7],monitored cycles with recommendation to increase the prescribed dose [7],monitored cycles with recommendation to suspend/suppress the drug [7],further results
"C#Cc1cccc(Nc2ncnc3cc(OCCOC)c(OCCOC)cc23)c1 [Erlotinib, erlotinib]",46.2%,44%,9 (45.4) n. (%),4 (18.1) n. (%),2 (9.1) n. (%),3 (13.6) n. (%),1 (4.5) n. (%),5 (22.7) n. (%),3 (13.6) n. (%),no significant differences,45.4%,9 (45.4) n. (%),32 Months,8 Months,22.7%,13.6%,45.5%,3.6%,38.2%,3.6%,"fraction of a single dose eliminated in the urine [1]: 9%; patients with plasma concentrations below the target ([1]; target 500 mg/L, lung cancer patients): 11.1%; OS ([3]; 26 NSCLC patients): 16.9 months; PFS ([3]; 26 NSCLC patients): 6.3 months; OS of patients with grade 1 rash [3, 9]: 8.5 months; OS of patients with grade 2 rash [3, 9]: 19.6 months; OS of patients without rash [3, 9]: 1.5 months; patients with grade 2 skin rash ([4]; first monitored cycle): 13.6%; patients with grade 3 mucositis ([4]; first monitored cycle): 4.5%; patients with grade 3 thrombocytopenia ([4]; first monitored cycle): 4.5%; Toxicity: Fatigue G2 ([4]; in vivo): 2 (9.1) n. (%); Toxicity: Skin rash G2 ([4]; in vivo): 3 (13.6) n. (%); patients with grade 2 skin rash ([4]; last monitored cycle): 14.3%; patients with grade 3 mucositis ([4]; last monitored cycle): 0%; patients with grade 3 rash ([4]; last monitored cycle): 7.1%; patients with grade 3 thrombocytopenia ([4]; last monitored cycle): 0%; Toxicity: RI G2 [4]: 4 (18.1) n. (%); Toxicity: Thromb. G3 ([4]; trombopenia grade 3): 1 (4.5) n. (%); % patients, Group 1 [6]: 18.2%; monitored cycles with recommendation to maintain the current dose [7]: 54.5%"
"Cc1ccc(NC(=O)c2ccc(CN3CCN(C)CC3)cc2)cc1Nc1nccc(-c2cccnc2)n1 [Imatinib, imatinib]",48.91%,50.84%,,,,,,,,,,,,,,,,,,,"mean interpatient variability in dose-normalized plasma concentrations (CV) ([2]; first monitored cycle, listed as imatinib): 48.9%; mean interpatient variability in dose-normalized plasma concentrations (CV) ([2]; last monitored cycle, after TDM and dose adjustments, listed as imatinib): 50.8%"
"CS(=O)(=O)CCNCc1ccc(-c2ccc3ncnc(Nc4ccc(OCc5cccc(F)c5)c(Cl)c4)c3c2)o1 [Lapatinib, lapatinib]",60.7%,56%,12 (75.0) n. (%),3 (18.7) n. (%),2 (12.5) n. (%),1 (6.2) n. (%),1 (6.2) n. (%),1 (6.2) n. (%),1 (6.2) n. (%),no significant differences,75%,6 (37.5) n. (%),46 Months,8 Months,18.7%,6.2%,69.5%,8.6%,14.3%,8.6%,"increase in AUC with high-fat meals [1]: more than 3 fold; interpatient variability in exposure, AUC [1]: 42–117%; interpatient variability in exposure, Ctrough [1]: 55–97%; t1/2 in severe liver failure relative to normal liver function [1]: 3 fold; increase of mean AUC in patients with severe liver failure ([1]; vs normal liver function): more than 60%; toxicities detected ([4]; after performing TDM): 5 cases; toxicities detected ([4]; first monitored cycle): 25 cases; reduction of toxicity events by TDM ([4]; first vs last monitored cycle): 80%; Toxicity: Anemia G3 ([4]; in vivo): 1 (6.2) n. (%); Toxicity: Diarrhea G1 ([4]; in vivo): 2 (12.5) n. (%); Toxicity: Diarrhea G3 ([4]; in vivo): 1 (6.2) n. (%); Toxicity: Pain ([4]; in vivo): 2 (12.5) n. (%); Toxicity: Neutr. G3 ([4]; neutropenia grade 3): 2 (12.5) n. (%); Toxicity: RI G2 [4]: 2 (12.5) n. (%); % patients, Group 1 [6]: 6.2%; monitored cycles with recommendation to maintain the current dose [7]: 68.6%"
"CNC(=O)c1cc(Oc2ccc(NC(=O)Nc3ccc(Cl)c(C(F)(F)F)c3)cc2)ccn1 [Sorafenib, sorafenib]",89.7%,72.5%,,2 (18.2) n. (%),1 (9.1) n. (%),1 (9.1) n. (%),,,,,63.3%,2 (18.2) n. (%),9 Months,9 Months,9.1%,54.4%,9.1%,6.9%,17.2%,3.4%,"dose above which gastrointestinal absorption saturates [1]: greater than 800 mg; variability in exposure between patients, AUC [1]: 12–117%; variability in exposure between patients, apparent oral Cl [1]: 13–80%; Toxicity: Abdominal pain ([4]; in vivo): 2 (18.2) n. (%); patients with anemia [4, 10]: 50%; patients with grade 3 neutropenia [4, 10]: 25%; Toxicity: Thromb. G1 ([4]; trombopenia grade 1): 1 (9.1) n. (%)"
Cc1cn(-c2cc(NC(=O)c3ccc(C)c(Nc4nccc(-c5cccnc5)n4)c3)cc(C(F)(F)F)c2)cn1 [nilotinib],,,,,,,,,,,,,,,,,,,,,increase in AUC with high-fat meals [1]: up to 80%
Cc1ccc(Nc2nccc(N(C)c3ccc4c(C)n(C)nc4c3)n2)cc1S(N)(=O)=O [pazopanib],,,,,,,,,,,,,,,,,,,,,AUC when administered with food compared to fasted state [1]: doubled; dose above which plasma AUC does not increase ([1]; solubility limitations in the digestive tract): greater than 800 mg
